# According to patent US20140315738A1, “MARINE MEDAKA GENES RESPONDING TO THE EXPOSURE OF ENDOCRINE-DISRUPTING CHEMICALS, AND METHOD FOR DIAGNOSING AN AQUATIC ECO-SYSTEM CONTAMINATION USING SAME” (priority 2011, published 2014):
# System: Javanese medaka (Oryzias javanicus) livers
# Experiment: real-time quantitative PCR of liver gene expression after exposure to 17β-estradiol
# Format: in vivo
# Conditions: duration of exposure 24 hr, 100 μg/L, β-actin control gene
# Protocol: To 3 L beaker with 2 L filtered seawater therein, 10 male Javanese medaka bred in culture water tank were transported each time, and acclimated for 24 hr. […] Additionally, five Javanese medaka of Example <1-1> were exposed to BPA (76 μg/L) for 48 hr. […] The Javanese medaka was transported to ice water, one at a time, which momentarily stunned it, followed by beheading and evisceration and liver removal.
# Primers for real-time quantitative PCR (RT-PCR) for the above genes were designed and synthesized (Table 3).
# With RNA template extracted with the method of Example <2-1>, cDNA was synthesized using AB High Capacity RNA-to-cDNA Kit (Applied Biosystems, USA). RNA in the amount of 1 μg was seeded, added with distilled water and titrated to 9 μl. 2×RT buffer (10 μl), and 20× enzyme Mix 1 μl were mixed well, centrifuged and precipitated, and allowed to react at 37° C. for 60 min. The reactant was heated at 95° C. for 5 min, after which reaction was completed. The synthesized cDNA was stored at −20° C.
# To the 0.5 μg synthesized cDNA (corresponding to approximately 10 ng/μl), 0.8 primer pairs of corresponding genes (10 pmol/μl), and 2 SYBR1 mixture (10 μl) were added. The final amount was titrated to 20 μl using distilled water. At temperature condition of 95° C. 10 min, 95° C. 30 sec, 60° C. 30 sec, 72° C. 30 sec, 40 cycles of PCR were conducted.
smiles,measurement,value
C[C@]12CC[C@@H]3c4ccc(O)cc4CC[C@H]3[C@@H]1CC[C@@H]2O [17β-estradiol],"Difference of expression level, Apolipoprotein B (SEQ ID 53)",2.5 times lower
same,"Difference of expression level, Cytochrome P450 1A (CYP1A) (SEQ ID 5)",2.7 times lower
same,"Difference of expression level, Glucose-6-phosphate dehydrogenase (SEQ ID 55)",2.2 times lower
same,"Difference of expression level, Glutamate dehydrogenase 1b (SEQ ID 54)",5.2 times lower
same,"Difference of expression level, Selenoprotein M (SEQ ID 8)",7.7 times higher
same,"Difference of expression level, Transferrin (SEQ ID 56)",3.6 times lower
same,"Difference of expression level, Vitellogenin 1 (SEQ ID 37)",59.1 times higher
